Reference: ChEMBL document CHEMBL5465560, “Selectivity Literature for EUbOPEN Chemogenomic Library” (2024)

What was measured:
[1] = biological target: BDNF/NT-3 growth factors receptor (Homo sapiens) (UniProt Q16620); assay: Selectivity interaction (KinomeScan (DiscoverX)) EUB0000092b NTRK2; conditions: at 10 µM
[2] = biological target: Death-associated protein kinase 3 (Homo sapiens) (UniProt O43293); assay: Selectivity interaction (Kinase panel (DSF assay)) EUB0001559a DAPK3
[3] = test system: Epidermal growth factor receptor (Homo sapiens), P00533 [UNDEFINED MUTATION]; conditions: at 10 µM
Chain of Epidermal growth factor receptor (Homo sapiens), P00533 [UNDEFINED MUTATION] (P00533 whole entry, looked up, change not shown): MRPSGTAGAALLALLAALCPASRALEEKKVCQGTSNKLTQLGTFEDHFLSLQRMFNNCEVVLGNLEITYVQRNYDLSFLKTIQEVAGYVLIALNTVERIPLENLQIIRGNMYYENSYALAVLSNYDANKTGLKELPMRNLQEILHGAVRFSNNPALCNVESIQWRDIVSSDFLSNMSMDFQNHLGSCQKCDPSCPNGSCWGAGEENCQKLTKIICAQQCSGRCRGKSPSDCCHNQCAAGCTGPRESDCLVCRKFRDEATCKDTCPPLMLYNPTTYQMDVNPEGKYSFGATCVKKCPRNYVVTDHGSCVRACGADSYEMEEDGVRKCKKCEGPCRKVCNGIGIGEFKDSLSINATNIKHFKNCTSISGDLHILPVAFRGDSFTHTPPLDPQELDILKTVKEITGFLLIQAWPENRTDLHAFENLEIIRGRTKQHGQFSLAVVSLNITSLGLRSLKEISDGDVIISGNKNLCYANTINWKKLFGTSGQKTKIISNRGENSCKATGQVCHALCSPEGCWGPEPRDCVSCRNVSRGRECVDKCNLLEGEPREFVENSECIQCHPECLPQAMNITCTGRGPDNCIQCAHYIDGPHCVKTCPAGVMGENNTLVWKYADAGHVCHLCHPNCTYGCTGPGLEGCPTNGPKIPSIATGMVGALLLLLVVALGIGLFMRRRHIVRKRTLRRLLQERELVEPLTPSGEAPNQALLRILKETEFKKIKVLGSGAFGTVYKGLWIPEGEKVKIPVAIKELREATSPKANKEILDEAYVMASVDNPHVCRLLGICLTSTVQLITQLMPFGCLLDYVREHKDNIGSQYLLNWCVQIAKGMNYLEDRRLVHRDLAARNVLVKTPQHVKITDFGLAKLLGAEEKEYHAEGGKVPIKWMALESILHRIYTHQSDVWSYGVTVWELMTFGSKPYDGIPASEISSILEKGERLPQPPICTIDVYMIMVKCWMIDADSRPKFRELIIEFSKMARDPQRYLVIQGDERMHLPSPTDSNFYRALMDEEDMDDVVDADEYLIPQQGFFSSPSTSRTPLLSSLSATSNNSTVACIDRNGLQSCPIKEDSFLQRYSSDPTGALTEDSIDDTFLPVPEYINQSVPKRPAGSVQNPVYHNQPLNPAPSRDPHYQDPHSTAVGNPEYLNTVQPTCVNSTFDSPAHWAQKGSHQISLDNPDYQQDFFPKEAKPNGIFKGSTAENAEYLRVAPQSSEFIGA

[4] = biological target: Serine/threonine-protein kinase PRP4 homolog (Homo sapiens) (UniProt Q13523); conditions: at 10 µM
[5] = biological target: Tyrosine-protein kinase receptor UFO (Homo sapiens) (UniProt P30530); assay: Selectivity interaction (ActivX KiNativ screen (kinase selectivity in THP-1 cell lysates)) EUB0000639a AXL; assay type: subcellular; conditions: lysate
Chain of Tyrosine-protein kinase receptor UFO (Homo sapiens) (P30530 whole entry): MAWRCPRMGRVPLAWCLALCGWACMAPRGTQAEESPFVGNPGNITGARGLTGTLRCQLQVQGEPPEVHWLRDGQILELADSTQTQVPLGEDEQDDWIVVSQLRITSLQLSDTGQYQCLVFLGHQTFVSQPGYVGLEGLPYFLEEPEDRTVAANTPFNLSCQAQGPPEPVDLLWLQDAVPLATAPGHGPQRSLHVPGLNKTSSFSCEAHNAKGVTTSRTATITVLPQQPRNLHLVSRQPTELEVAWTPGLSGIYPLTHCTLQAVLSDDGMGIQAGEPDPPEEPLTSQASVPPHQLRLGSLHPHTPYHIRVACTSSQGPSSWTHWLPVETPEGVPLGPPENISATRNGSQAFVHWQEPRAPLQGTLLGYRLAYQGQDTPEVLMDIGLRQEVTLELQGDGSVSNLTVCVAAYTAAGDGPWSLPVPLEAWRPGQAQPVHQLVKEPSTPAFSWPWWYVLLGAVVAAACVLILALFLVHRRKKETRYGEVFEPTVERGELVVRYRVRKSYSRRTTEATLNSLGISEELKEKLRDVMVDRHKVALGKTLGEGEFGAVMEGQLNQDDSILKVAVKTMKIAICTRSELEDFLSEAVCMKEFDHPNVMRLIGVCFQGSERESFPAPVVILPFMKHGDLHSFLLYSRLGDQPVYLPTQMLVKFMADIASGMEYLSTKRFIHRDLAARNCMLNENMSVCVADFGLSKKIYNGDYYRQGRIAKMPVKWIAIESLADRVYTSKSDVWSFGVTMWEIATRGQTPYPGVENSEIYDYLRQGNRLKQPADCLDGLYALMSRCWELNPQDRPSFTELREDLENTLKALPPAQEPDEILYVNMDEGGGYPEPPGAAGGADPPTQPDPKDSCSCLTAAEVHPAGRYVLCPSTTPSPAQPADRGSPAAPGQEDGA

[6] = biological target: T1, Megakaryocyte-associated tyrosine-protein kinase (Homo sapiens) (UniProt P42679); assay: Selectivity interaction (SelectScreen profiling (Invitrogen)) EUB0000607a MATK; conditions: at 2 µM
T1 sequence (whole entry): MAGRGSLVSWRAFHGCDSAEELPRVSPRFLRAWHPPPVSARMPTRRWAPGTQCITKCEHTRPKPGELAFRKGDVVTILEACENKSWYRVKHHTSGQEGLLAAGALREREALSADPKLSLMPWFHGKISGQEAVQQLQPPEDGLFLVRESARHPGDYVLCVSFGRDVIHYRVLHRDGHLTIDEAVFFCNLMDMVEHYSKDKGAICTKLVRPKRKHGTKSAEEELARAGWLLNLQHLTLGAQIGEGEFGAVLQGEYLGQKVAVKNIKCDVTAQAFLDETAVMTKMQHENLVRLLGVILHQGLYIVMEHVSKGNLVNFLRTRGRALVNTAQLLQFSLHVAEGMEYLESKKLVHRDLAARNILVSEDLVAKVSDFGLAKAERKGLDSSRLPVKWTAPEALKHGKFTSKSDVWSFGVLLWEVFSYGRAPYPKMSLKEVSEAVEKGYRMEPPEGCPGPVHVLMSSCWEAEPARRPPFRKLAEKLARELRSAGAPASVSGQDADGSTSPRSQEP

[7] = biological target: Macrophage colony-stimulating factor 1 receptor (Homo sapiens) (UniProt P07333); assay: Selectivity interaction (KinomeScan (DiscoverX)) EUB0001049a CSF1R; conditions: at 1 µM
[8] = biological target: Homeodomain-interacting protein kinase 1 (Homo sapiens, UniProt Q86Z02); assay: Selectivity interaction (KinomeScan (DiscoverX)) EUB0001049a HIPK1; conditions: at 1 µM
Chain of Homeodomain-interacting protein kinase 1 (Q86Z02 whole entry, looked up): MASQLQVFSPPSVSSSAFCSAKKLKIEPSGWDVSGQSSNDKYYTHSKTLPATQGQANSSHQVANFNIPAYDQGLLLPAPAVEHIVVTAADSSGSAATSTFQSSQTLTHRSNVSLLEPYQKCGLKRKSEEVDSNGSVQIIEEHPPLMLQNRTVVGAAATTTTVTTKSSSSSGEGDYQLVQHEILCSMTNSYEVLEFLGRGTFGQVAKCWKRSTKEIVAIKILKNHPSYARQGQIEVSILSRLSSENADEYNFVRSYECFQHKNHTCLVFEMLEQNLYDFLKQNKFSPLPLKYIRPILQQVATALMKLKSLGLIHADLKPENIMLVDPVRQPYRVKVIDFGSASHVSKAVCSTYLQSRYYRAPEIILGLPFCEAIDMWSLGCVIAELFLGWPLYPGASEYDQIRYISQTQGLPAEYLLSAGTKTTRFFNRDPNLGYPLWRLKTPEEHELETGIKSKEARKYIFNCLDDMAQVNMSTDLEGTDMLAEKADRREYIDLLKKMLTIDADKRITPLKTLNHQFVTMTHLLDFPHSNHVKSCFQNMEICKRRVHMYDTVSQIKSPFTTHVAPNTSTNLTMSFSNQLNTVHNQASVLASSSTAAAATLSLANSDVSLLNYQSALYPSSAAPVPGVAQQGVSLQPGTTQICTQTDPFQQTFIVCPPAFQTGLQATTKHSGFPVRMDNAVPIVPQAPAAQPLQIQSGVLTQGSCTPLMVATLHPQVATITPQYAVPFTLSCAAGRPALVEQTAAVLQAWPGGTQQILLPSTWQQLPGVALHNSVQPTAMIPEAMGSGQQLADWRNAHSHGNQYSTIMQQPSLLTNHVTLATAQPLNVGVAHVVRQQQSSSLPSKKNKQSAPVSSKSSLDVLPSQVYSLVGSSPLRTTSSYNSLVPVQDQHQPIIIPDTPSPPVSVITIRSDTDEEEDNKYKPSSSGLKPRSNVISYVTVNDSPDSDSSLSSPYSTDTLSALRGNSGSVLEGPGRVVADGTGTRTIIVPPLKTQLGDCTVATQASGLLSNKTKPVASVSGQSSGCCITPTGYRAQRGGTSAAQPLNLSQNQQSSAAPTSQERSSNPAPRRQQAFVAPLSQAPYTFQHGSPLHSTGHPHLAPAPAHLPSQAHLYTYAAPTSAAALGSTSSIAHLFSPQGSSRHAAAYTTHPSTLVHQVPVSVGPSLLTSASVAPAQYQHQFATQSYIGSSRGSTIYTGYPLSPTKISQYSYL

[9] = test system: Proto-oncogene tyrosine-protein kinase receptor Ret (Homo sapiens), P07949 [M918T]; assay: (§1) Selectivity interaction (KinomeScan (DiscoverX)) EUB0000695a RET; conditions: at 100 nM
[10] = test system: Proto-oncogene tyrosine-protein kinase receptor Ret (Homo sapiens), P07949 [V804L]; assay: as §1; conditions: at 100 nM
[11] = test system: Proto-oncogene tyrosine-protein kinase receptor Ret (Homo sapiens), P07949 [V804M]; assay: as §1; conditions: at 100 nM
[12] = biological target: Proto-oncogene tyrosine-protein kinase receptor Ret (Homo sapiens, UniProt P07949); assay: as §1; conditions: at 100 nM
Chain of Proto-oncogene tyrosine-protein kinase receptor Ret (P07949 whole entry): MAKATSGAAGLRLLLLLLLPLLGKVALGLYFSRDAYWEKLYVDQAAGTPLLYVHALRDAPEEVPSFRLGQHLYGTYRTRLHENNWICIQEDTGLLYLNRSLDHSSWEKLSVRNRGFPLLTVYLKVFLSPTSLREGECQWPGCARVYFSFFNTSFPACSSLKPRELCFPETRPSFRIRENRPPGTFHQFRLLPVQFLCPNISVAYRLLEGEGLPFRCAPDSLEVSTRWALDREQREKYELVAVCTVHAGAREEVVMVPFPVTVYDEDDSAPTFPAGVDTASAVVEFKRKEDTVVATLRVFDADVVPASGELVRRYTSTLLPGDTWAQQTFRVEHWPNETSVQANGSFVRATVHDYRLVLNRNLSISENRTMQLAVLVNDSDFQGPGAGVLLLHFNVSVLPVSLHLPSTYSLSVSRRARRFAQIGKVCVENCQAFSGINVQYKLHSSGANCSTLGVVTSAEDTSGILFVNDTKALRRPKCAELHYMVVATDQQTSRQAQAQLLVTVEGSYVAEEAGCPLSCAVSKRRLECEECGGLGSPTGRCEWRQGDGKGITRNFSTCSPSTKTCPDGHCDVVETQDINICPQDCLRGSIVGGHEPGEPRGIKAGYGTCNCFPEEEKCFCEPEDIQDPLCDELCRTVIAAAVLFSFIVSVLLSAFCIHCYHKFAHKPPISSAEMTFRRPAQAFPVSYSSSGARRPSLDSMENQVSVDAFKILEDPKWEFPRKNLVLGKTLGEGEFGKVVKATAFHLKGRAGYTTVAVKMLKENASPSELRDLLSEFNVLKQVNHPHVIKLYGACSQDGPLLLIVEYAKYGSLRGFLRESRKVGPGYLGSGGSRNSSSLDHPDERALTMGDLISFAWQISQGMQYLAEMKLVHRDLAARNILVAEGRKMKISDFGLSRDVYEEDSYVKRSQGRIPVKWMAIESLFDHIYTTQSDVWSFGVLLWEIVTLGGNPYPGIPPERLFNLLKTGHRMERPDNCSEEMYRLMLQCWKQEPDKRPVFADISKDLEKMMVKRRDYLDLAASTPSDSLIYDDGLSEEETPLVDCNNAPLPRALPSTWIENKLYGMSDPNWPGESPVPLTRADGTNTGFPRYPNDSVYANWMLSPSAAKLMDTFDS

[13] = biological target: T2, Bone morphogenetic protein receptor type-2 (Homo sapiens) (UniProt Q13873); assay: Selectivity interaction (Ambit KINOMEscan and KiNATiv profiling in Jurkat cells) EUB0000090b BMPR2; assay type: cell-based; conditions: at 1 µM
T2 sequence (whole entry): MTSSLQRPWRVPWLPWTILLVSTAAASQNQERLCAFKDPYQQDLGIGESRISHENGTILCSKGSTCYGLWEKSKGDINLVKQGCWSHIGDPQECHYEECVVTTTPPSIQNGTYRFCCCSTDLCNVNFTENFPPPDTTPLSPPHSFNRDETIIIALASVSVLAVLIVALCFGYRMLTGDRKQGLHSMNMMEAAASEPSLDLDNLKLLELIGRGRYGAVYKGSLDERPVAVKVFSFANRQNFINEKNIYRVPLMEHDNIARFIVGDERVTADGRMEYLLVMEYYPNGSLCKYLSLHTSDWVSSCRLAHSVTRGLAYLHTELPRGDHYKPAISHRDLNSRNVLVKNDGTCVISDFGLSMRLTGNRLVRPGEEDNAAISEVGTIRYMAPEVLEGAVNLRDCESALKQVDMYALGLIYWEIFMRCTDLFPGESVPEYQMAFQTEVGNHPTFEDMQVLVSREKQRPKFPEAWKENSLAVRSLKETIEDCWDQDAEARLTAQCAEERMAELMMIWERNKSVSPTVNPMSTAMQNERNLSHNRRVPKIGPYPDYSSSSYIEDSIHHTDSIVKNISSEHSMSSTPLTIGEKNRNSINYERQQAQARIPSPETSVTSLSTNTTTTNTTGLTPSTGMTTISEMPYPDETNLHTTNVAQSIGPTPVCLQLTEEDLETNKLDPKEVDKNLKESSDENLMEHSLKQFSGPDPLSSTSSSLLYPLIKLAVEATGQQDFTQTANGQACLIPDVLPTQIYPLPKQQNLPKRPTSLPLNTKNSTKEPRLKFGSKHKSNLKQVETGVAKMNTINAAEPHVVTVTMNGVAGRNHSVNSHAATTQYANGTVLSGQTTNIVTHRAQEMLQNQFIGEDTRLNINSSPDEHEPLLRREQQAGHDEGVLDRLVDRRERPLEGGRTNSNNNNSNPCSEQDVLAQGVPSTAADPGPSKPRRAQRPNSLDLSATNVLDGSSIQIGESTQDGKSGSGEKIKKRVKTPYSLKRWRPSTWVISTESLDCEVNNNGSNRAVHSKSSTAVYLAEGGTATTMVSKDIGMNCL

[14] = biological target: Casein kinase I isoform gamma-3 (Homo sapiens) (UniProt Q9Y6M4); assay: Selectivity interaction (Ambit KINOMEscan and KiNATiv profiling in Jurkat cells) EUB0000090b CSNK1G3; assay type: cell-based; conditions: at 1 µM

Chain of Death-associated protein kinase 3 (Homo sapiens) (O43293 whole entry, looked up): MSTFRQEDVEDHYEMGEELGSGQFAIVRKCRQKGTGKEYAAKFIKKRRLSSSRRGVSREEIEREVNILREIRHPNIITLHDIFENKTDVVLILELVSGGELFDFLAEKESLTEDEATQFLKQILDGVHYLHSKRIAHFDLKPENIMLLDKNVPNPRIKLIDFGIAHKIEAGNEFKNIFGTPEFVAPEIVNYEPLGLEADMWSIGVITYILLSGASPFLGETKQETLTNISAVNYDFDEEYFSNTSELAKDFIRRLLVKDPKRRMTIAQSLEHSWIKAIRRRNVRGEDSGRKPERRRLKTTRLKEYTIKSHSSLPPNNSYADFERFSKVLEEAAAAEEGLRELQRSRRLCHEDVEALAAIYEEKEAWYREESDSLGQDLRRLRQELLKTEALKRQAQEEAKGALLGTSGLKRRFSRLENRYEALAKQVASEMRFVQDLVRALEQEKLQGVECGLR

CCC(=O)N1CCN(c2ccc(-n3c(=O)ccc4cnc5ccc(-c6cnc7ccccc7c6)cc5c43)cc2C(F)(F)F)CC1
% of control [1]: 81%

CN(C(=O)c1cnn2cccnc12)c1cc2c(cc1N1CCOCC1)C(=O)N(C[C@@H](F)C(C)(C)O)C2
dTM [2]: 0.2 K

Cc1cc([C@@H](C)Nc2ccccc2C(=O)O)c2nc(N3CCOCC3)cc(=O)n2c1 [AZD-6482]
% of control [3]: 100%
% of control [4]: 71%

CC[C@@H]1[C@H](F)C(=O)N[C@@H]1COc1nccc2cc(C(N)=O)c(OC)cc12 [ZIMLOVISERTIB]
% of inhibition ([5]; at 0.01 µM): 0.7%
% of inhibition ([5]; at 0.04 µM): -4.1%
% of inhibition ([5]; at 0.2 µM): 7.8%
% of inhibition ([5]; at 1 µM): 27.6%
% of inhibition ([5]; at 5 µM): 63.2%

CNC(=O)Nc1ccc(-c2nc(N3CC4CCC(C3)O4)c3cnn(C4CCC5(CC4)OCCO5)c3n2)cc1
% of inhibition [6]: 2%

COc1cc(Nc2nc(C)cc(-c3cnn4nc(OC)ccc34)n2)cc(C(F)(F)F)c1
% of control [7]: 100%
% of control [8]: 70%

Cc1cc(F)c(C(=O)Nc2cccc(-c3nncn3C(C)C)n2)cc1-n1cnc(C2CC2)c1
% of control [9]: 100%
% of control [10]: 100%
% of control [11]: 98%
% of control [12]: 96%

CN(C)C/C=C/C(=O)Nc1ccc(C(=O)N2CCCC(Nc3ncc(Cl)c(-c4c[nH]c5ccccc45)n3)C2)cc1 (stereo not drawn)
% of control [13]: 100%
% of control [14]: 67%
